Measured values taken from patent publication US20080063668A1, “Nitroimidazole and terconazole composition and method” (priority 2006, published 2008).

Assays:
Experiment in all cases: Inhibition of bacteria growth, drug dilution tubes, anaerobic
Format in all cases: cell-based
Set-up in all cases: key: (+) for growth; (−) for no growth; (±) for suboptimal growth after an initial observation of growth
[1] = test system: Mobiluncus curtisii var. curtisii ATCC 35241
Protocol: (§1) Serial dilutions of tinidazole and terconazole were prepared by adding measured amounts of each substance to water (both individually and in combination). Seven bacterial organisms that are common pathogens in bacterial vaginosis were grown anaerobically in the medium as listed in Table 4 under a N2/H2/CO2 (85:5:10) head space atmosphere. [table] These cultures were diluted to a 0.5 McFarland standard prior to inoculation of drug dilution tubes. One (1) mL of the 0.5 McFarland preparation was inoculated to an anaerobically prepared test tube containing 0.8 mL of Difco anaerobic medium (DAMM) and 0.2 mL of appropriate diluted antimicrobial or antimicrobial combination for a total of 2 mL. The inoculated tubes were then incubated at 37° C. and monitored daily for growth. Growth was scored with a (+) for growth, (−) for no growth, and (±) for suboptimal growth after an initial observation of growth. Tinidazole is abbreviated as TNZ and terconazole is abbreviated as TER in Tables 5 through 11.

[2] = test system: Bacteroides fragilis ATCC 25285
Protocol: as §1

[3] = test system: Gardnerella vaginalis ATCC 14018
Protocol: as §1

## CCS(=O)(=O)CCn1c([N+](=O)[O-])cnc1C [TNZ, 1-[2-(ethylsulfonyl)ethyl]-2-methyl-5-nitroimidazole]
[1]; TNZ 2 μg/ml, DAY 1
  growth: (+)
[1]; TNZ 2 μg/ml, DAY 2
  growth: (+)
[1]; TNZ 2 μg/ml, DAY 3
  growth: (+)
[1]; TNZ 2 μg/ml, DAY 4
  growth: (+)
[1]; TNZ 2 μg/ml, DAY 5
  growth: (+)
[1]; TNZ 3.9 μg/ml, DAY 1
  growth: (+)
[1]; TNZ 3.9 μg/ml, DAY 2
  growth: (+)
[1]; TNZ 3.9 μg/ml, DAY 3
  growth: (+)
[1]; TNZ 3.9 μg/ml, DAY 4
  growth: (+)
[1]; TNZ 3.9 μg/ml, DAY 5
  growth: (+)
[1]; TNZ 7.8 μg/ml, DAY 1
  growth: (+)
[1]; TNZ 7.8 μg/ml, DAY 2
  growth: (+)
[1]; TNZ 7.8 μg/ml, DAY 3
  growth: (+)
[1]; TNZ 7.8 μg/ml, DAY 4
  growth: (+)
[1]; TNZ 7.8 μg/ml, DAY 5
  growth: (+)
[1]; TNZ 15.6 μg/ml, DAY 1
  growth: (+)
[1]; TNZ 15.6 μg/ml, DAY 2
  growth: (+)
[1]; TNZ 15.6 μg/ml, DAY 3
  growth: (+)
[1]; TNZ 15.6 μg/ml, DAY 4
  growth: (+)
[1]; TNZ 15.6 μg/ml, DAY 5
  growth: (+)
[1]; TNZ 31.3 μg/ml, DAY 1
  growth: (+)
[1]; TNZ 31.3 μg/ml, DAY 2
  growth: (+)
[1]; TNZ 31.3 μg/ml, DAY 3
  growth: (+)
[1]; TNZ 31.3 μg/ml, DAY 4
  growth: (+)
[1]; TNZ 31.3 μg/ml, DAY 5
  growth: (+)
[1]; TNZ 62.5 μg/ml, DAY 1
  growth: (+)
[1]; TNZ 62.5 μg/ml, DAY 2
  growth: (+)
[1]; TNZ 62.5 μg/ml, DAY 3
  growth: (+)
[1]; TNZ 62.5 μg/ml, DAY 4
  growth: (+)
[1]; TNZ 62.5 μg/ml, DAY 5
  growth: (+)
[1]; TNZ 125 μg/ml, DAY 1
  growth: (+)
[1]; TNZ 125 μg/ml, DAY 2
  growth: (+)
[1]; TNZ 125 μg/ml, DAY 3
  growth: (+)
[1]; TNZ 125 μg/ml, DAY 4
  growth: (+)
[1]; TNZ 125 μg/ml, DAY 5
  growth: (+)
[1]; TNZ 250 μg/ml, DAY 1
  growth: (−)
[1]; TNZ 250 μg/ml, DAY 2
  growth: (+)
[1]; TNZ 250 μg/ml, DAY 3
  growth: (+)
[1]; TNZ 250 μg/ml, DAY 4
  growth: (+)
[1]; TNZ 250 μg/ml, DAY 5
  growth: (+)
[1]; TNZ 500 μg/ml, DAY 1
  growth: (−)
[1]; TNZ 500 μg/ml, DAY 2
  growth: (−)
[1]; TNZ 500 μg/ml, DAY 3
  growth: (−)
[1]; TNZ 500 μg/ml, DAY 4
  growth: (−)
[1]; TNZ 500 μg/ml, DAY 5
  growth: (+)
[2]; TNZ 2 μg/ml, DAY 1
  growth: (−)
[2]; TNZ 2 μg/ml, DAY 2
  growth: (−)
[2]; TNZ 2 μg/ml, DAY 3
  growth: (−)
[2]; TNZ 2 μg/ml, DAY 4
  growth: (−)
[2]; TNZ 2 μg/ml, DAY 5
  growth: (+)
[2]; TNZ 3.9 μg/ml, DAY 1
  growth: (−)
[2]; TNZ 3.9 μg/ml, DAY 2
  growth: (−)
[2]; TNZ 3.9 μg/ml, DAY 3
  growth: (−)
[2]; TNZ 3.9 μg/ml, DAY 4
  growth: (−)
[2]; TNZ 3.9 μg/ml, DAY 5
  growth: (−)
[2]; TNZ 7.8 μg/ml, DAY 1
  growth: (−)
[2]; TNZ 7.8 μg/ml, DAY 2
  growth: (−)
[2]; TNZ 7.8 μg/ml, DAY 3
  growth: (−)
[2]; TNZ 7.8 μg/ml, DAY 4
  growth: (−)
[2]; TNZ 7.8 μg/ml, DAY 5
  growth: (−)
[2]; TNZ 15.6 μg/ml, DAY 1
  growth: (−)
[2]; TNZ 15.6 μg/ml, DAY 2
  growth: (−)
[2]; TNZ 15.6 μg/ml, DAY 3
  growth: (−)
[2]; TNZ 15.6 μg/ml, DAY 4
  growth: (−)
[2]; TNZ 15.6 μg/ml, DAY 5
  growth: (−)
[2]; TNZ 31.3 μg/ml, DAY 1
  growth: (−)
[2]; TNZ 31.3 μg/ml, DAY 2
  growth: (−)
[2]; TNZ 31.3 μg/ml, DAY 3
  growth: (−)
[2]; TNZ 31.3 μg/ml, DAY 4
  growth: (−)
[2]; TNZ 31.3 μg/ml, DAY 5
  growth: (−)
[2]; TNZ 62.5 μg/ml, DAY 1
  growth: (−)
[2]; TNZ 62.5 μg/ml, DAY 2
  growth: (−)
[2]; TNZ 62.5 μg/ml, DAY 3
  growth: (−)
[2]; TNZ 62.5 μg/ml, DAY 4
  growth: (−)
[2]; TNZ 62.5 μg/ml, DAY 5
  growth: (−)
[2]; TNZ 125 μg/ml, DAY 1
  growth: (−)
[2]; TNZ 125 μg/ml, DAY 2
  growth: (−)
[2]; TNZ 125 μg/ml, DAY 3
  growth: (−)
[2]; TNZ 125 μg/ml, DAY 4
  growth: (−)
[2]; TNZ 125 μg/ml, DAY 5
  growth: (−)
[2]; TNZ 250 μg/ml, DAY 1
  growth: (−)
[2]; TNZ 250 μg/ml, DAY 2
  growth: (−)
[2]; TNZ 250 μg/ml, DAY 3
  growth: (−)
[2]; TNZ 250 μg/ml, DAY 4
  growth: (−)
[2]; TNZ 250 μg/ml, DAY 5
  growth: (−)
[2]; TNZ 500 μg/ml, DAY 1
  growth: (−)
[2]; TNZ 500 μg/ml, DAY 2
  growth: (−)
[2]; TNZ 500 μg/ml, DAY 3
  growth: (−)
[2]; TNZ 500 μg/ml, DAY 4
  growth: (−)
[2]; TNZ 500 μg/ml, DAY 5
  growth: (−)
[3]; TNZ 2 μg/ml, DAY 1
  growth: (+)
[3]; TNZ 2 μg/ml, DAY 2
  growth: (+)
[3]; TNZ 2 μg/ml, DAY 3
  growth: (+)
[3]; TNZ 2 μg/ml, DAY 4
  growth: (+)
[3]; TNZ 2 μg/ml, DAY 5
  growth: (+)
[3]; TNZ 3.9 μg/ml, DAY 1
  growth: (+)
[3]; TNZ 3.9 μg/ml, DAY 2
  growth: (+)
[3]; TNZ 3.9 μg/ml, DAY 3
  growth: (+)
[3]; TNZ 3.9 μg/ml, DAY 4
  growth: (+)
[3]; TNZ 3.9 μg/ml, DAY 5
  growth: (+)
[3]; TNZ 7.8 μg/ml, DAY 1
  growth: (−)
[3]; TNZ 7.8 μg/ml, DAY 2
  growth: (+)
[3]; TNZ 7.8 μg/ml, DAY 3
  growth: (+)
[3]; TNZ 7.8 μg/ml, DAY 4
  growth: (+)
[3]; TNZ 7.8 μg/ml, DAY 5
  growth: (+)
[3]; TNZ 15.6 μg/ml, DAY 1
  growth: (−)
[3]; TNZ 15.6 μg/ml, DAY 2
  growth: (+)
[3]; TNZ 15.6 μg/ml, DAY 3
  growth: (+)
[3]; TNZ 15.6 μg/ml, DAY 4
  growth: (+)
[3]; TNZ 15.6 μg/ml, DAY 5
  growth: (+)
[3]; TNZ 31.3 μg/ml, DAY 1
  growth: (−)
[3]; TNZ 31.3 μg/ml, DAY 2
  growth: (−)
[3]; TNZ 31.3 μg/ml, DAY 3
  growth: (−)
[3]; TNZ 31.3 μg/ml, DAY 4
  growth: (−)
[3]; TNZ 31.3 μg/ml, DAY 5
  growth: (−)
[3]; TNZ 62.5 μg/ml, DAY 1
  growth: (−)
[3]; TNZ 62.5 μg/ml, DAY 2
  growth: (−)
[3]; TNZ 62.5 μg/ml, DAY 3
  growth: (−)
[3]; TNZ 62.5 μg/ml, DAY 4
  growth: (−)
[3]; TNZ 62.5 μg/ml, DAY 5
  growth: (−)
[3]; TNZ 125 μg/ml, DAY 1
  growth: (−)
[3]; TNZ 125 μg/ml, DAY 2
  growth: (−)
[3]; TNZ 125 μg/ml, DAY 3
  growth: (−)
[3]; TNZ 125 μg/ml, DAY 4
  growth: (−)
[3]; TNZ 125 μg/ml, DAY 5
  growth: (−)
[3]; TNZ 250 μg/ml, DAY 1
  growth: (−)
[3]; TNZ 250 μg/ml, DAY 2
  growth: (−)
[3]; TNZ 250 μg/ml, DAY 3
  growth: (−)
[3]; TNZ 250 μg/ml, DAY 4
  growth: (−)
[3]; TNZ 250 μg/ml, DAY 5
  growth: (−)
[3]; TNZ 500 μg/ml, DAY 1
  growth: (−)
[3]; TNZ 500 μg/ml, DAY 2
  growth: (−)
[3]; TNZ 500 μg/ml, DAY 3
  growth: (−)
[3]; TNZ 500 μg/ml, DAY 4
  growth: (−)
[3]; TNZ 500 μg/ml, DAY 5
  growth: (−)
